Drawing on patent US6867206B1, “6-carboxyphenyldihydropyridazinone derivatives and use thereof” (Bayer Aktiengesellschaft, priority 1999, dated 2005), this text covers melting point for 55 compounds.

Structures are written as SMILES. Some results are limits rather than exact numbers.

Take `CCCCNC(=O)c1ccc(C2=NNC(=O)CC2)cc1` [Example 4]: the melting point (in general, the temperature of the solid-liquid transition) is 217 to 218 °C.

With `O=C1CCC(c2ccc(C(=O)NCc3ccco3)cc2)=NN1` [Example 5], the melting point was 208 to 210 °C.

For `COC(=O)c1ccc(C2=NNC(=O)CC2)cc1` [Example 6], the melting point fell in the range of 203 to 205 °C.

In turn, `O=C1CCC(c2ccc(C(=O)NCc3ccccc3)cc2)=NN1` [Example 7] displayed a melting point of 208 to 209 °C.

Consider `O=C1CCC(c2ccc(C(=O)Nc3c(Cl)cccc3Cl)cc2)=NN1` [Example 8], for which the melting point was greater than 250 °C.

In turn, `CC(C)OC(=O)c1ccc(C2=NNC(=O)CC2)cc1` [Example 9] had a melting point of 155 to 156 °C.

The compound `O=C1CCC(c2ccc(C(=O)NCCc3ccccc3)cc2)=NN1` [Example 10] came in with a melting point of 223 to 226 °C.

With `O=C1CCC(c2ccc(C(=O)NC3CC3)cc2)=NN1` [Example 11], the melting point was 248 to 250 °C.

Compound `CCOC(=O)c1ccc(C2=NNC(=O)CC2)cc1` [Example 12] came in with a melting point of 157 to 159 °C.

With `O=C1CCC(c2ccc(C(=O)Nc3ccccc3)cc2)=NN1` [Example 13], the melting point was greater than 250 °C.

Regarding `CNC(=O)c1ccc(C2=NNC(=O)CC2)cc1` [Example 14], the melting point was 233 to 234 °C.

As for `CCNC(=O)c1ccc(C2=NNC(=O)CC2)cc1` [Example 15], the melting point lay in the range of 228 to 230 °C.

On to `O=C1CCC(c2ccc(C(=O)NCc3cccc4ccccc34)cc2)=NN1` [Example 16], for which the melting point fell in the range of 258 to 260 °C.

With `O=C1CCC(c2ccc(C(=O)NCc3ccccn3)cc2)=NN1` [Example 17], the melting point lay within 228 to 230 °C.

For the compound `O=C1CCC(c2ccc(C(=O)Nc3ccccc3Cl)cc2)=NN1` [Example 18], the melting point was 209 to 210 °C.

Compound `O=C1CCC(c2ccc(C(=O)N3CCCCC3)cc2)=NN1` [Example 19] gave a melting point of 182 to 184 °C.

As to `O=C1CCC(c2ccc(C(=O)NCc3cccnc3)cc2)=NN1` [Example 20], the melting point lay within 220 to 223 °C.

In turn, `Cc1ccc(NC(=O)c2ccc(C3=NNC(=O)CC3)cc2)cc1` [Example 21] returned a melting point greater than 250 °C.

Turning to `O=C1CCC(c2ccc(C(=O)Nc3cccc(Cl)c3)cc2)=NN1` [Example 22], the melting point is greater than 250 °C.

As for `CC(NC(=O)c1ccc(C2=NNC(=O)CC2)cc1)c1ccccc1` (stereo not shown) [Example 23], the melting point was 242 to 243 °C.

The compound `COC(=O)c1ccc(NC(=O)c2ccc(C3=NNC(=O)CC3)cc2)o1` [Example 24] displayed a melting point greater than 260 °C.

Compound `O=C1CCC(c2ccc(C(=O)N3CCCc4ccccc43)cc2)=NN1` [Example 25] came in with a melting point of 215 to 216 °C.

On to `O=C1CCC(c2ccc(C(=O)NC3CCCCC3)cc2)=NN1` [Example 27], for which the melting point fell in the range of 249 to 250 °C.

In turn, `O=C1CCC(c2ccc(C(=O)Nc3cccc(C(F)(F)F)c3)cc2)=NN1` [Example 28] had a melting point of 229 to 230 °C.

Turning to `O=C1CCC(c2ccc(C(=O)N3CCOCC3)cc2)=NN1` [Example 29], the melting point is 202 to 203 °C.

As for `O=C1CCC(c2ccc(C(=O)NCc3ccc(Cl)c(Cl)c3)cc2)=NN1` [Example 30], the melting point lay within 208 to 209 °C.

The compound `CCCOC(=O)c1ccc(C2=NNC(=O)CC2)cc1` [Example 31] yielded a melting point of 283 to 284 °C.

As for `CC(C)COC(=O)c1ccc(C2=NNC(=O)CC2)cc1` [Example 32], the melting point was in the range of 259 to 260 °C.

Turning to `CCC(C)OC(=O)c1ccc(C2=NNC(=O)CC2)cc1` (stereo not shown) [Example 33], the melting point was 120 to 122 °C.

`O=C1CCC(c2ccc(C(=O)OCC3CC3)cc2)=NN1` [Example 34] gave a melting point of 158 to 159 °C.

With `O=C1CCC(c2ccc(C(=O)OC3CCCC3)cc2)=NN1` [Example 35], the melting point is 167 to 169 °C.

For `C=CCOC(=O)c1ccc(C2=NNC(=O)CC2)cc1` [Example 36], the melting point lay in the range of 131 to 133 °C.

As for `CN(CCOC(=O)c1ccc(C2=NNC(=O)CC2)cc1)Cc1ccccc1` [Example 37], the melting point was 90 to 91 °C.

For the compound `CC(OC(=O)c1ccc(C2=NNC(=O)CC2)cc1)C1CC1` (stereo not shown) [Example 38], the melting point is 104 to 105 °C.

In turn, `O=C1CCC(c2ccc(C(=O)OCCc3ccccc3)cc2)=NN1` [Example 39] displayed a melting point of 146 to 148 °C.

Turning to `O=C1CCC(c2ccc(C(=O)OCC3CCC3)cc2)=NN1` [Example 40], the melting point is 155 to 156 °C.

Turning to `O=C1CCC(c2ccc(C(=O)OCc3ccccc3)cc2)=NN1` [Example 41], the melting point was 156 to 157 °C.

Consider `CN(C(=O)c1ccc(C2=NNC(=O)CC2)cc1)c1ccccc1` [Example 42], for which the melting point fell in the range of 208 to 209 °C.

On to `O=C1CCC(c2ccc(C(=O)NCCc3ccccc3F)cc2)=NN1` [Example 43], for which the melting point lay within 189 to 190 °C.

Take `O=C1CCC(c2ccc(C(=O)NCCc3cccs3)cc2)=NN1` [Example 44]: the melting point was in the range of 215 to 216 °C.

Turning to `O=C1CCC(c2ccc(C(=O)Nc3c(F)cccc3F)cc2)=NN1` [Example 45], the melting point is 278 to 279 °C.

As to `NC(=O)c1ccsc1NC(=O)c1ccc(C2=NNC(=O)CC2)cc1` [Example 47], the melting point was greater than 250 °C.

In turn, `O=C1CCC(c2ccc(C(=O)NCc3ccccc3F)cc2)=NN1` [Example 49] returned a melting point of 186 to 187 °C.

Compound `NC(=O)c1ccccc1NC(=O)c1ccc(C2=NNC(=O)CC2)cc1` [Example 51] showed a melting point greater than 250 °C.

With `CC1CC(=O)NN=C1c1ccc(C(=O)Nc2cccnc2)cc1` (stereo not shown) [Example 53], the melting point lay in the range of 267 to 268 °C.

For the compound `CC1CC(=O)NN=C1c1ccc(C(=O)Nc2cccc3ccccc23)cc1` (stereo not shown) [Example 54], the melting point is 266 to 267 °C.

`CC1CC(=O)NN=C1c1ccc(C(=O)Nc2ccc3ccccc3c2)cc1` (stereo not shown) [Example 55] gave a melting point of 271 to 272 °C.

Take `CC1CC(=O)NN=C1c1ccc(C(=O)N2CCCc3ccccc32)cc1` (stereo not shown) [Example 56]: the melting point was greater than 260 °C.

For the compound `CC1CC(=O)NN=C1c1ccc(C(=O)NC2CC2)cc1` (stereo not shown) [Example 57], the melting point was in the range of 216 to 217 °C.

Turning to `CC(C)CCNC(=O)c1ccc(C2=NNC(=O)CC2C)cc1` (stereo not shown) [Example 58], the melting point was in the range of 152 to 153 °C.

Take `CC1CC(=O)NN=C1c1ccc(C(=O)NCC(c2ccccc2)c2ccccc2)cc1` (stereo not shown) [Example 59]: the melting point is 186 to 187 °C.

The compound `COc1ccc(CCNC(=O)c2ccc(C3=NNC(=O)CC3C)cc2)cc1` (stereo not shown) [Example 60] yielded a melting point of 245 to 246 °C.

In turn, `COc1cccc(CCNC(=O)c2ccc(C3=NNC(=O)CC3C)cc2)c1` (stereo not shown) [Example 61] had a melting point of 164 to 165 °C.

`CC(C)CNC(=O)c1ccc(C2=NNC(=O)CC2C)cc1` (stereo not shown) [Example 62] returned a melting point of 166 to 167 °C.

The compound `COc1ccc(CCNC(=O)c2ccc(C3=NNC(=O)CC3C)cc2)cc1OC` (stereo not shown) [Example 63] yielded a melting point of 146 to 147 °C.
